Test results as given in PMC11855827, “High-Throughput Screening of Five Compound Libraries for Anthelmintic Activity and Toxicity Leads to the Discovery of Two Flavonoid Compounds” (International Journal of Molecular Sciences, 2025).
Where “and” joins values, the source holds several entries; their conditions need not be identical. Equal entries are not always repeated. Where two headings read alike, the source gives them in different places. Where a SMILES comes first, the peptide text is derived from it.

Test system: C. elegans
[1] = Table S2, C. elegans SS assay, 110 μM, 0 h, averages of 4 data points
[2] = Table S2, C. elegans SS assay, 110 μM, 24 h, averages of 4 data points

Molecule | Percentage of motility inhibition 0 h [1] | Percentage of motility inhibition 24 h [2] | other results
C=C(C)[C@@H]1CC[C@]2(C=O)CC[C@]3(C)[C@H](CC[C@@H]4[C@@]5(C)CC[C@H](O)C(C)(C)[C@@H]5CC[C@]43C)[C@@H]12 [Betulinaldehyde] | 7% and 0% | 3% and 9% | 
NC(=O)C[C@H](N)C(=O)O [L-Asparagine] | 27% | 25% | 
(+)‐Sparteine | 5% | 13% | 
CC(=O)Oc1c(C)c(C)c2c(c1C)CCC(C)(CCC[C@H](C)CCC[C@H](C)CCCC(C)C)O2 (stereo partly drawn) [D-α-Tocopherol acetate] | 7% | 22% | 
NCC(=O)N1CCC[C@H]1C(=O)O [H‐Gly‐Pro‐OH] (H-Gly-Pro-OH) | 8% | 4% | 
C[C@@H]1O[C@@H](O[C@@H]2[C@@H](O)[C@H](O)[C@@H](CO)O[C@H]2c2c(O)cc(O)c3c(=O)cc(-c4ccc(O)cc4)oc23)[C@H](O)[C@H](O)[C@H]1O [Vitexin‐2"‐O‐rhamnoside] | 2% | 52% | 
CO/N=C(\C(=O)N[C@@H]1C(=O)N2C(C(=O)O)=C(CSc3nnnn3C)CS[C@H]12)c1csc(N)n1.CO/N=C(\C(=O)N[C@@H]1C(=O)N2C(C(=O)O)=C(CSc3nnnn3C)CS[C@H]12)c1csc(N)n1.Cl [Cefmenoxime (hydrochloride)] | 15% | 0% | 
C[C@H]1CC[C@@H]2N(C1)C[C@H]1[C@@H]3C[C@H]4[C@@H](CC(=O)[C@H]5C[C@@H](O)CC[C@@]54C)[C@@H]3CC[C@H]1[C@]2(C)O [Sipeimine] | 0% | 9% | 
C=C1[C@H](OC(=O)/C=C(\C)CC)C[C@@H](C(C)C)[C@@H]2[C@@H]([C@@H](C)OC(C)=O)C(=O)C[C@@H]12 [Tussilagone] | 12% | 31% | 
Cc1ncc(C[n+]2csc(CCO)c2C)c(N)n1.Cl.[Cl-] [Thiamine (hydrochloride)] | 2% | 13% | 
COc1cc(OC)c2c(=O)cc(-c3ccc(OC)c(OC)c3)oc2c1 [5,7,3',4'‐Tetramethoxyflavone] | 0% | 0% | 
C[C@@H]1O[C@@H](c2c(O)c([C@@H]3O[C@H](CO)[C@@H](O)[C@H](O)[C@H]3O)c(O)c3c(=O)cc(-c4ccc(O)cc4)oc23)[C@H](O)[C@H](O)[C@H]1O [Violanthin] | 0% | 19% | 
NCCCC[C@H](NC(=O)[C@H](Cc1c[nH]c2ccccc12)NC(=O)[C@@H](N)CCCCN)C(=O)O [H‐Lys‐Trp‐Lys‐OH] (H-Lys-Trp-Lys-OH) |  |  | Percentage of motility inhibition 0 h (0 h, 110 μM): 55%; Percentage of motility inhibition 24 h (24 h, 110 µM): 10%
C=C1CC[C@@]2(C)[C@H]([C@@H]1C)[C@H]1CC[C@@H]3[C@@]4(C)CC[C@H](O)C(C)(C)[C@@H]4CC[C@@]3(C)[C@]1(C)C[C@@H]2O [Arnidiol] | 12% | 57% | 
C=C1[C@H]2C[C@H]2[C@]2(C)Cc3occ(C)c3[C@H](OC(C)=O)[C@@H]12 [Linderene acetate] | 8% | 20% | 
COc1ccc(-c2cc(=O)c3c(O)cc(O[C@@H]4O[C@H](C(=O)O)[C@@H](O)[C@H](O)[C@H]4O)cc3o2)cc1O [DiosMetin 7‐O‐β‐D‐Glucuronide] | 4% | 21% | 

Molecule | Percentage of motility inhibition 0 h [1] | Percentage of motility inhibition 24 h [2] | other results
CC(C)=CCC[C@](C)(O)[C@@H]1CC=C(C)CC1 [alpha-Bisabolol] | 1% | 6% | 
CC(C)=CCc1c(O)cc(O)c2c(=O)c(O[C@@H]3O[C@@H](C)[C@H](O)[C@@H](O)[C@H]3O)c(-c3ccc(O)cc3)oc12 [IKarisoside A] | 32% | 5% | 
NCC[C@H](O)C(=O)N[C@@H]1C[C@H](N)[C@@H](O[C@H]2O[C@H](CN)[C@@H](O)[C@H](O)[C@H]2O)[C@H](O)[C@H]1O[C@H]1O[C@H](CO)[C@@H](O)[C@H](N)[C@H]1O.O=S(=O)(O)O.O=S(=O)(O)O [Amikacin (sulfate)] | 0% | 3% | 
C1CNCCN1.O=C(O)CCCCC(=O)O [Piperazine adipate] | 10% | 13% | 
C=C1C(=O)O[C@@H]2/C=C(/C)C(OC(C)=O)C/C=C(/C=O)CC(OC(=O)/C(C)=C/CO)[C@@H]12 (stereo partly shown) [Eupalinolide O] | 1% | 9% | 
CC(=O)OC[C@]12C[C@H](OC(=O)CC(C)C)C(C)=C[C@H]1O[C@@H]1[C@H](O)[C@@H](OC(C)=O)[C@@]2(C)[C@]12CO2 [T-2 Toxin] |  |  | Percentage of motility inhibition 0 h (110 µM): 11%; Percentage of motility inhibition 24 h (110 µM): 2%
COc1c(C(C)C)cc2c(c1O)C1(C(=O)O)CCCC(C)(C)C1CC2 (stereo not shown) [12-O-Methylcarnosic acid] | 5% | 11% | 
CC1(C)S[C@@H]2[C@H](NC(=O)C(C(=O)[O-])c3ccccc3)C(=O)N2[C@H]1C(=O)[O-].[Na+].[Na+] (stereo partly shown) [Carbenicillin (disodium)] | 27% | 27% | 
CO/N=C(\C(=O)N[C@@H]1C(=O)N2C(C(=O)[O-])=C(C[n+]3ccn4ncccc43)CS[C@H]12)c1nsc(N)n1.Cl [Cefozopran (hydrochloride)] | 10% | 12% | 
Alisol B 23-acetate | 0% | 2% | 
Oc1cnc2c(O)cccc2c1 [Jineol] | 0% | 0% | 
COc1cc2c(cc1OC)[C@@H]1Cc3ccc(OC)c(OC)c3C[N@@+]1([O-])CC2 [(‐)‐Corynoxidine] | 19% | 10% | 
C[C@@H]1O[C@@H](O[C@H]2C(=O)c3c(O)cc(O)cc3O[C@H]2c2ccc(O)c(O)c2)[C@H](O)[C@H](O)[C@H]1O [Neoisoastilbin] | 0% | 0% | 
C=C(C)C(=O)O[C@H]1[C@@H]2[C@H](C)C(=O)O[C@@H]2C[C@@H](C)[C@@H]2C=CC(=O)[C@]21C [Arnicolide D] | 16% | 25% | 
CC(C)=CCC[C@@](C)(O)[C@H]1CC[C@]2(C)[C@@H]1[C@H](O)C[C@@H]1[C@@]3(C)CC[C@H](O[C@@H]4O[C@H](CO)[C@@H](O)[C@H](O)[C@H]4O[C@@H]4O[C@H](CO)[C@@H](O)[C@H](O)[C@H]4O[C@@H]4OC[C@@H](O)[C@H](O)[C@H]4O)C(C)(C)[C@@H]3CC[C@]12C [Notoginsenoside Ft1] | 14% | 3% | 
CC1(C)CC[C@]2(C(=O)O[C@@H]3O[C@H](CO)[C@@H](O)[C@H](O)[C@H]3O)CC[C@]3(C)C(=CC[C@@H]4[C@@]5(C)C[C@@H](O)[C@H](O)C(C)(C)[C@@H]5CC[C@]43C)[C@@H]2[C@@H]1O [Arjunetin] | 0% | 18% | 
